Measured values published in the kinase profiling compilation of Christmann-Franck et al. (2016).

Key:
Assay in all cases: radiometric filter-binding kinase assay, Kinase HotSpot
Settings in all cases: compound 0.5 µM; ATP 10 µM
AURKC (human) = AURKC (human) (UniProt Q9UQB9)
BTK (human) = BTK (human) (UniProt Q06187)
CAMK1G (human) = CAMK1G (human) (UniProt Q96NX5)
CDC42BPB (human) = CDC42BPB (human) (UniProt Q9Y5S2)
CLK1 (human) = CLK1 (human) (UniProt P49759)
DSTYK (human) = DSTYK (human) (UniProt Q6XUX3)
DYRK4 (human) = DYRK4 (human) (UniProt Q9NR20)
EPHB2 (human) = EPHB2 (human) (UniProt P29323)
FRK (human) = FRK (human) (UniProt P42685)
GSK3B (human) = GSK3B (human) (UniProt P49841)
IGF1R (human) = IGF1R (human) (UniProt P08069)
IKBKB (human) = IKBKB (human) (UniProt O14920)
LCK (human) = LCK (human) (UniProt P06239)
LIMK1 (human) = LIMK1 (human) (UniProt P53667)
MAP3K2 (human) = MAP3K2 (human) (UniProt Q9Y2U5)
MAP3K3 (human) = MAP3K3 (human) (UniProt Q99759)
MAP3K7 TAB1 (human) = MAP3K7 TAB1 (human) (UniProt O43318+Q15750)
MAP4K5 (human) = MAP4K5 (human) (UniProt Q9Y4K4)
MAPK13 (human) = MAPK13 (human) (UniProt O15264)
MAPKAPK5 (human) = MAPKAPK5 (human) (UniProt Q8IW41)
MARK4 (human) = MARK4 (human) (UniProt Q96L34)
MERTK (human) = MERTK (human) (UniProt Q12866)
MINK1 (human) = MINK1 (human) (UniProt Q8N4C8)
MST4 (human) = MST4 (human) (UniProt Q9P289)
PAK2 (human) = PAK2 (human) (UniProt Q13177)
PDGFRB (human) = PDGFRB (human) (UniProt P09619)
PDPK1 (human) = PDPK1 (human) (UniProt O15530)
PLK3 (human) = PLK3 (human) (UniProt Q9H4B4)
PRKCD (human) = PRKCD (human) (UniProt Q05655)
PRKCZ (human) = PRKCZ (human) (UniProt Q05513)
PRKX (human) = PRKX (human) (UniProt P51817)
PTK2 (human) = PTK2 (human) (UniProt Q05397)
RET (human) = RET (human) (UniProt P07949)
RIPK2 (human) = RIPK2 (human) (UniProt O43353)
RPS6KA5 KD2 (human) = RPS6KA5 KD2 (human) (UniProt O75582)
STK11 (human) = STK11 (human) (UniProt Q15831)
TAOK2 (human) = TAOK2 (human) (UniProt Q9UL54)
TGFBR1 (human) = TGFBR1 (human) (UniProt P36897)
TSSK2 (human) = TSSK2 (human) (UniProt Q96PF2)
TXK (human) = TXK (human) (UniProt P42681)
ZAP70 (human) = ZAP70 (human) (UniProt P43403)
RPS6KA6 KD1 KD2 (human) = RPS6KA6 KD1 KD2 (human) (UniProt Q9UK32)

Chain of TGFBR1 (human) (P36897 whole entry, looked up): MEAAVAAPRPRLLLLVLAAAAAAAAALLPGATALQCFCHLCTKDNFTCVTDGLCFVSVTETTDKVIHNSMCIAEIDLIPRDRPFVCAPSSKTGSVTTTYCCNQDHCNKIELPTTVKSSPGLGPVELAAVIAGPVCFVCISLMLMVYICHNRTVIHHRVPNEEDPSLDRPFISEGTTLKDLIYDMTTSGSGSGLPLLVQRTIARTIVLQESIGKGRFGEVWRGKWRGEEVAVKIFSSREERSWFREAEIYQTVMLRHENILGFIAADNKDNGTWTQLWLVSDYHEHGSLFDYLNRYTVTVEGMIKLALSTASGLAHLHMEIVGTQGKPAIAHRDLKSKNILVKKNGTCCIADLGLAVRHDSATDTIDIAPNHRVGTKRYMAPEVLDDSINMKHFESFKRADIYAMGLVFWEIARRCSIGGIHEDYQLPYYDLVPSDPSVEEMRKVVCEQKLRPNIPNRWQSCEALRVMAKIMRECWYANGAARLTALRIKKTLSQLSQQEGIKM
Chain of PDPK1 (human) (O15530 whole entry, looked up): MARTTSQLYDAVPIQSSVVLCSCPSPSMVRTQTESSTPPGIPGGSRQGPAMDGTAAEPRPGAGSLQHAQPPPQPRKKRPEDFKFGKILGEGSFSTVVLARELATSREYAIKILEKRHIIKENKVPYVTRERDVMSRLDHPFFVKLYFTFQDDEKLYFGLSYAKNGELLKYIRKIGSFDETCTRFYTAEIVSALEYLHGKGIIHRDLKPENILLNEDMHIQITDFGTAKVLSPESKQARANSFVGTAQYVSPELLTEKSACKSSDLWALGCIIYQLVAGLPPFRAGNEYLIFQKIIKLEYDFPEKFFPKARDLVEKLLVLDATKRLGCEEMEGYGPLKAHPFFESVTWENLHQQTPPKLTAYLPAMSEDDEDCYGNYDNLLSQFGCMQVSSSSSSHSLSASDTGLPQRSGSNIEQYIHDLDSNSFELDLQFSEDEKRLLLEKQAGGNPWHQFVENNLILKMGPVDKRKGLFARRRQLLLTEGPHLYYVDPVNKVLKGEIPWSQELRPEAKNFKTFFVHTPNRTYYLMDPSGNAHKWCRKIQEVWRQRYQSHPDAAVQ
Chain of PRKCZ (human) (Q05513 whole entry, looked up): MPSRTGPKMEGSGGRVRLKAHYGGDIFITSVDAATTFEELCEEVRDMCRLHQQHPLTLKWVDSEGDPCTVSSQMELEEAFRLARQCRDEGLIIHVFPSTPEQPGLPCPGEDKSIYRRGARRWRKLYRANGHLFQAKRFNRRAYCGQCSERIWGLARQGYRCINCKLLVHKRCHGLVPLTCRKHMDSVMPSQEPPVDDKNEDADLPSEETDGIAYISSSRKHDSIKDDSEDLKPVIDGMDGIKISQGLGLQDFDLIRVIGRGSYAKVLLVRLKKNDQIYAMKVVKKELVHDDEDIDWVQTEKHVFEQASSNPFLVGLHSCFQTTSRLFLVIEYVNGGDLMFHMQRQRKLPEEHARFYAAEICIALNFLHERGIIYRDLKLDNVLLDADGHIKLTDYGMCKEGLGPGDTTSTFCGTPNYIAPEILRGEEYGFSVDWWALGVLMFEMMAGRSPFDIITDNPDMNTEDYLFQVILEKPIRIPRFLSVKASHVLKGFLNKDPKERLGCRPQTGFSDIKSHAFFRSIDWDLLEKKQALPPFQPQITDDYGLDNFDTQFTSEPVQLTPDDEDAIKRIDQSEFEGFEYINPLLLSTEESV
Chain of TSSK2 (human) (Q96PF2 whole entry, looked up): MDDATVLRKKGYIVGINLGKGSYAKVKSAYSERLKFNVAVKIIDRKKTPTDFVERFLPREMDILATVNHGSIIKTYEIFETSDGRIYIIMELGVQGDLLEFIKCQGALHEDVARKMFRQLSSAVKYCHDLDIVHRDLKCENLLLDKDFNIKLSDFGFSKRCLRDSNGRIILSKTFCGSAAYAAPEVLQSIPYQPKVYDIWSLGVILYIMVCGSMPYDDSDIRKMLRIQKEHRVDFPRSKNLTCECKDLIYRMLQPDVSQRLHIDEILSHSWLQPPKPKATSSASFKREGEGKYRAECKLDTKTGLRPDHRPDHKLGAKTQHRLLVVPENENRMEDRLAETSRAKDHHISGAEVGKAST
Chain of PTK2 (human) (Q05397 whole entry, looked up): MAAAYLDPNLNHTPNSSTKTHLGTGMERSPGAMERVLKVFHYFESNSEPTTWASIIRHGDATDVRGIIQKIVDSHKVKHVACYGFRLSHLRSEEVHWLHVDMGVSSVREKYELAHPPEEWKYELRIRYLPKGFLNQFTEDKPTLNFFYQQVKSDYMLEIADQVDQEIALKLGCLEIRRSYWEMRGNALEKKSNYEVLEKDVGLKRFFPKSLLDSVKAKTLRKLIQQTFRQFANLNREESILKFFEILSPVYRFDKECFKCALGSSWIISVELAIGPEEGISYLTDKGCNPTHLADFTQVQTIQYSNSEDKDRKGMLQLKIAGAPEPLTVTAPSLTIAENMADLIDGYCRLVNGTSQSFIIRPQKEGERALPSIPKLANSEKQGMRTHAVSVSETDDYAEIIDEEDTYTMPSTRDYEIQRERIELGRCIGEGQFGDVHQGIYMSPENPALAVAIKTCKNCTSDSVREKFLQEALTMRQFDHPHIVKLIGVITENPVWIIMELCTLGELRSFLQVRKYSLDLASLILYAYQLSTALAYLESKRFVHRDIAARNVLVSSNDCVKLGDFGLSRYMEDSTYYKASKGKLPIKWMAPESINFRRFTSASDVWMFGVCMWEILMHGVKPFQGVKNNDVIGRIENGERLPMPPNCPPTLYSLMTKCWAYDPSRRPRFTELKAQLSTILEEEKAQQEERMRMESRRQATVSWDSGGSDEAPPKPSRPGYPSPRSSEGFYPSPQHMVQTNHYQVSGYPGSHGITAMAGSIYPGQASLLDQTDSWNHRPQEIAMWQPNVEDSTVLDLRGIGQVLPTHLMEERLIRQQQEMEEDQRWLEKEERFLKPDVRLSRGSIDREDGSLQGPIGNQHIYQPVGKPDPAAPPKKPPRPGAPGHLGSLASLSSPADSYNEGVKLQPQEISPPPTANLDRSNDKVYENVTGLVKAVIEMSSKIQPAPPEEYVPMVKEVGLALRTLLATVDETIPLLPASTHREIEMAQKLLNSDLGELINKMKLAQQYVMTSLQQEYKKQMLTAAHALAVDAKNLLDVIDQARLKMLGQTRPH
Chain of DYRK4 (human) (Q9NR20 whole entry, looked up): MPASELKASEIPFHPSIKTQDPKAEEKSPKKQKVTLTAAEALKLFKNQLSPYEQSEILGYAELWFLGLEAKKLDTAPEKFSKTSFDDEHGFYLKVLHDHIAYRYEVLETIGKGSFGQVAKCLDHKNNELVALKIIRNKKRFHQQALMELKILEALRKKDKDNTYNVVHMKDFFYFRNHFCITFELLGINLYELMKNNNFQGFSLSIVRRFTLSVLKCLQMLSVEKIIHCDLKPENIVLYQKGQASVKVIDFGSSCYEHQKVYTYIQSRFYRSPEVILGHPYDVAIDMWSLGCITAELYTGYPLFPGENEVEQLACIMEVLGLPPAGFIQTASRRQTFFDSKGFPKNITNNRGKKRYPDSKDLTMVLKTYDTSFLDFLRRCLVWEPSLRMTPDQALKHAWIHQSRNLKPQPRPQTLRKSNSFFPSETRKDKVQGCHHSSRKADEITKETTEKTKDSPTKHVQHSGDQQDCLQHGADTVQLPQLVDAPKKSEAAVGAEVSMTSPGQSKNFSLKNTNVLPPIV
Chain of MAP3K3 (human) (Q99759 whole entry, looked up): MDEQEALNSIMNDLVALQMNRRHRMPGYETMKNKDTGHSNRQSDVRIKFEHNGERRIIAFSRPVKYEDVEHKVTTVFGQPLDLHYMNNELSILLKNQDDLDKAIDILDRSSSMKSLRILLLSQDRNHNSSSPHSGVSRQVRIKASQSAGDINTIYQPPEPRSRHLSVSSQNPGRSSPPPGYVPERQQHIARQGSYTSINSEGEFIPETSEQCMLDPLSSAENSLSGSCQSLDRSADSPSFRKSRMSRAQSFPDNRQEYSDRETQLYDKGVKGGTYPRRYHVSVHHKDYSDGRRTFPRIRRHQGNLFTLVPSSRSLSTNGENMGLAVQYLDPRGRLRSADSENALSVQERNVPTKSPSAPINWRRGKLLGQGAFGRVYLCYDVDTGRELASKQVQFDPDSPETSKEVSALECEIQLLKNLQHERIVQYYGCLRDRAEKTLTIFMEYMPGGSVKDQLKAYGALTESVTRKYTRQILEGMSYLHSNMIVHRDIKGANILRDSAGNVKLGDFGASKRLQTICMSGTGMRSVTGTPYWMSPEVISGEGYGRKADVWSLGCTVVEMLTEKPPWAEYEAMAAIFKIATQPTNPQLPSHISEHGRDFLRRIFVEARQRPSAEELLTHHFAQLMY
Chain of MAPK13 (human) (O15264 whole entry, looked up): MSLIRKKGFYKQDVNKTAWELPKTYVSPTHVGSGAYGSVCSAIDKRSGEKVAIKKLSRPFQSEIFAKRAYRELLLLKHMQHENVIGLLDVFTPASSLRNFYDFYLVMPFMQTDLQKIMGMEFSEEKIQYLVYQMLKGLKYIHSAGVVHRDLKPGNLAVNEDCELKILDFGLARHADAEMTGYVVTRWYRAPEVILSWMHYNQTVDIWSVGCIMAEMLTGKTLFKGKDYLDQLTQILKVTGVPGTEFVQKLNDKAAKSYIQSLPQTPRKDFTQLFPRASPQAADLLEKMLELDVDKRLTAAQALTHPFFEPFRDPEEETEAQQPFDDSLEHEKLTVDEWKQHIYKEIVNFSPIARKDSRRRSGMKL
Chain of PRKX (human) (P51817 whole entry, looked up): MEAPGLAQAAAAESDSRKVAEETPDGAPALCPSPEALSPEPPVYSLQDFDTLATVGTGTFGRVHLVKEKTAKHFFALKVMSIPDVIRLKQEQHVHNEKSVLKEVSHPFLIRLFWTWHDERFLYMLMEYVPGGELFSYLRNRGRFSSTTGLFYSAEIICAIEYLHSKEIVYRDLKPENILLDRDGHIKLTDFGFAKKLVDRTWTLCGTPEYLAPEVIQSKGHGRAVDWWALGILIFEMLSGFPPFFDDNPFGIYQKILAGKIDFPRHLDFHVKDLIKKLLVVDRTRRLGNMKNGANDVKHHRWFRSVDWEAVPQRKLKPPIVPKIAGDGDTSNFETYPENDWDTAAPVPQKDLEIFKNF

`COc1ccc(Cl)cc1NC(=O)Nc1cc(C)nc2ccccc12` was tested. Which residual activity (AURKC (human)) did it give?
Its residual activity is 99.9%.

What about the residual activity (BTK (human)) of the same compound?
The residual activity was 102%.

And the residual activity (CAMK1G (human))?
The residual activity was 102%.

What about the residual activity (CDC42BPB (human)) of the same compound?
The residual activity was 94.4%.

And the residual activity (CLK1 (human))?
Its residual activity is 97.6%.

And the residual activity (DSTYK (human))?
The residual activity was 98.8%.

And the residual activity (DYRK4 (human))?
Its residual activity is 98.9%.

What about the residual activity (EPHB2 (human)) of the same compound?
Its residual activity is 93.2%.

And the residual activity (FRK (human))?
Its residual activity is 98.4%.

And the residual activity (GSK3B (human))?
Its residual activity is 91.6%.

And the residual activity (IGF1R (human))?
Its residual activity is 94.9%.

What about the residual activity (IKBKB (human)) of the same compound?
The residual activity was 94.3%.

And the residual activity (LCK (human))?
The residual activity was 98.2%.

What about the residual activity (LIMK1 (human)) of the same compound?
The residual activity was 87.1%.

And the residual activity (MAP3K2 (human))?
Its residual activity is 98%.

And the residual activity (MAP3K3 (human))?
The residual activity was 111%.

And the residual activity (MAP3K7 TAB1 (human))?
Its residual activity is 101%.

And the residual activity (MAP4K5 (human))?
The residual activity was 100%.

What about the residual activity (MAPK13 (human)) of the same compound?
The residual activity was 108%.

And the residual activity (MAPKAPK5 (human))?
The residual activity was 89.1%.

What about the residual activity (MARK4 (human)) of the same compound?
Its residual activity is 79.7%.

What about the residual activity (MERTK (human)) of the same compound?
Its residual activity is 93.3%.

What about the residual activity (MINK1 (human)) of the same compound?
Its residual activity is 88.7%.

What about the residual activity (MST4 (human)) of the same compound?
The residual activity was 77.6%.

And the residual activity (PAK2 (human))?
The residual activity was 97.2%.

What about the residual activity (PDGFRB (human)) of the same compound?
The residual activity was 105%.

And the residual activity (PDPK1 (human))?
Its residual activity is 83.9%.

And the residual activity (PLK3 (human))?
Its residual activity is 100%.

And the residual activity (PRKCD (human))?
Its residual activity is 96.3%.

What about the residual activity (PRKCZ (human)) of the same compound?
The residual activity was 99.4%.

What about the residual activity (PRKX (human)) of the same compound?
The residual activity was 98%.

What about the residual activity (PTK2 (human)) of the same compound?
Its residual activity is 97.3%.

What about the residual activity (RET (human)) of the same compound?
The residual activity was 102%.

What about the residual activity (RIPK2 (human)) of the same compound?
The residual activity was 82.7%.

And the residual activity (RPS6KA5 KD2 (human))?
Its residual activity is 88.4%.

And the residual activity (STK11 (human))?
Its residual activity is 103%.

What about the residual activity (TAOK2 (human)) of the same compound?
Its residual activity is 98.2%.

And the residual activity (TGFBR1 (human))?
Its residual activity is 99.1%.

And the residual activity (TSSK2 (human))?
The residual activity was 94%.

And the residual activity (TXK (human))?
The residual activity was 98.9%.

And the residual activity (ZAP70 (human))?
Its residual activity is 94.9%.

Which residual activity (AURKC (human)) does the source give for `NC(=O)c1cccc(-c2cc(Nc3ccc(OC(F)(F)F)cc3)ncn2)c1` here?
The residual activity was 101%.

And the residual activity (BTK (human))?
The residual activity was 99.1%.

And the residual activity (CAMK1G (human))?
The residual activity was 98.1%.

And the residual activity (CDC42BPB (human))?
Its residual activity is 93.2%.

What about the residual activity (CLK1 (human)) of the same compound?
Its residual activity is 115%.

What about the residual activity (DSTYK (human)) of the same compound?
Its residual activity is 95.8%.

And the residual activity (DYRK4 (human))?
The residual activity was 96.3%.

And the residual activity (EPHB2 (human))?
Its residual activity is 102%.

What about the residual activity (FRK (human)) of the same compound?
Its residual activity is 95.5%.

What about the residual activity (GSK3B (human)) of the same compound?
The residual activity was 110%.

And the residual activity (IGF1R (human))?
The residual activity was 91%.

And the residual activity (IKBKB (human))?
The residual activity was 98.6%.

What about the residual activity (LCK (human)) of the same compound?
The residual activity was 93.3%.

What about the residual activity (LIMK1 (human)) of the same compound?
The residual activity was 100%.

What about the residual activity (MAP3K2 (human)) of the same compound?
The residual activity was 79.5%.

And the residual activity (MAP3K3 (human))?
The residual activity was 104%.

And the residual activity (MAP3K7 TAB1 (human))?
The residual activity was 99.1%.

What about the residual activity (MAP4K5 (human)) of the same compound?
The residual activity was 97.8%.

What about the residual activity (MAPK13 (human)) of the same compound?
The residual activity was 98.1%.

And the residual activity (MAPKAPK5 (human))?
Its residual activity is 94.3%.

And the residual activity (MARK4 (human))?
The residual activity was 98.1%.

What about the residual activity (MERTK (human)) of the same compound?
Its residual activity is 98.1%.

And the residual activity (MST4 (human))?
Its residual activity is 94.7%.

And the residual activity (PAK2 (human))?
The residual activity was 106%.

What about the residual activity (PDGFRB (human)) of the same compound?
Its residual activity is 94.8%.

What about the residual activity (PDPK1 (human)) of the same compound?
Its residual activity is 98.3%.

What about the residual activity (PLK3 (human)) of the same compound?
Its residual activity is 96.9%.

What about the residual activity (PRKCD (human)) of the same compound?
The residual activity was 83.1%.

What about the residual activity (PRKCZ (human)) of the same compound?
Its residual activity is 100%.

And the residual activity (PRKX (human))?
Its residual activity is 105%.

What about the residual activity (PTK2 (human)) of the same compound?
The residual activity was 100%.

What about the residual activity (RET (human)) of the same compound?
Its residual activity is 105%.

And the residual activity (RIPK2 (human))?
The residual activity was 89.3%.

And the residual activity (RPS6KA5 KD2 (human))?
The residual activity was 104%.

What about the residual activity (RPS6KA6 KD1 KD2 (human)) of the same compound?
The residual activity was 94.2%.

And the residual activity (STK11 (human))?
The residual activity was 97.2%.

What about the residual activity (TAOK2 (human)) of the same compound?
Its residual activity is 91%.

And the residual activity (TGFBR1 (human))?
The residual activity was 103%.

And the residual activity (TSSK2 (human))?
Its residual activity is 97%.

And the residual activity (TXK (human))?
The residual activity was 111%.

And the residual activity (ZAP70 (human))?
Its residual activity is 97.1%.

For `N#C/C(=C\c1ccc(O)c(O)c1)C(=O)NCc1ccccc1`, which residual activity (AURKC (human)) is on record?
Its residual activity is 95.5%.

What about the residual activity (BTK (human)) of the same compound?
The residual activity was 99.8%.

And the residual activity (CAMK1G (human))?
Its residual activity is 98.7%.

What about the residual activity (CDC42BPB (human)) of the same compound?
Its residual activity is 103%.

What about the residual activity (CLK1 (human)) of the same compound?
The residual activity was 98.6%.

What about the residual activity (DSTYK (human)) of the same compound?
The residual activity was 91%.

And the residual activity (DYRK4 (human))?
Its residual activity is 106%.

What about the residual activity (EPHB2 (human)) of the same compound?
Its residual activity is 99.7%.

What about the residual activity (FRK (human)) of the same compound?
The residual activity was 97.4%.

What about the residual activity (GSK3B (human)) of the same compound?
The residual activity was 106%.

And the residual activity (IGF1R (human))?
The residual activity was 85.1%.

What about the residual activity (IKBKB (human)) of the same compound?
The residual activity was 103%.

What about the residual activity (LCK (human)) of the same compound?
Its residual activity is 95.7%.

And the residual activity (LIMK1 (human))?
Its residual activity is 97%.

And the residual activity (MAP3K2 (human))?
The residual activity was 99.8%.

And the residual activity (MAP3K3 (human))?
Its residual activity is 102%.

And the residual activity (MAP3K7 TAB1 (human))?
Its residual activity is 98.1%.

What about the residual activity (MAPK13 (human)) of the same compound?
Its residual activity is 101%.

What about the residual activity (MAPKAPK5 (human)) of the same compound?
Its residual activity is 94.2%.

And the residual activity (MARK4 (human))?
The residual activity was 104%.

And the residual activity (MERTK (human))?
Its residual activity is 89%.

And the residual activity (MINK1 (human))?
The residual activity was 97.9%.

And the residual activity (MST4 (human))?
The residual activity was 103%.

And the residual activity (PAK2 (human))?
Its residual activity is 76.8%.

What about the residual activity (PDGFRB (human)) of the same compound?
Its residual activity is 100%.

And the residual activity (PDPK1 (human))?
Its residual activity is 74%.

And the residual activity (PLK3 (human))?
The residual activity was 96.1%.

And the residual activity (PRKCD (human))?
Its residual activity is 91.1%.

What about the residual activity (PRKCZ (human)) of the same compound?
The residual activity was 104%.

And the residual activity (PRKX (human))?
The residual activity was 99.6%.

What about the residual activity (PTK2 (human)) of the same compound?
Its residual activity is 96.9%.

And the residual activity (RET (human))?
The residual activity was 108%.

What about the residual activity (RIPK2 (human)) of the same compound?
The residual activity was 101%.

What about the residual activity (RPS6KA5 KD2 (human)) of the same compound?
The residual activity was 102%.

What about the residual activity (RPS6KA6 KD1 KD2 (human)) of the same compound?
Its residual activity is 108%.

What about the residual activity (STK11 (human)) of the same compound?
The residual activity was 97.4%.

What about the residual activity (TAOK2 (human)) of the same compound?
The residual activity was 95.7%.

And the residual activity (TGFBR1 (human))?
The residual activity was 97.6%.

And the residual activity (TSSK2 (human))?
The residual activity was 90%.

And the residual activity (TXK (human))?
The residual activity was 104%.

What about the residual activity (ZAP70 (human)) of the same compound?
Its residual activity is 101%.
